Reference: patent US4474783A, “Cyclopropylmethyl piperazines, the process for preparing the same and their use in therapeutics” (Innothera, priority 1980, dated 1984)

Key:
[1] = acute toxicity, intravenous, male mice (LD50, Litchfield and Wilcoxon); conditions: mouse, in vivo; for LD50 at 168 h: i.v., 10 animals per group, 7 days observation, 95% confidence limit in brackets
Description: A toxicological study was also carried out on the compounds according to the invention.
More particularly, the acute toxicity was studied by introduction into the veins of male mice (10 animals per group), E.O.P.S. of the Swiss strain (bred by EVIC-CEBA).
The compounds to be tested were rendered soluble in physiological serum at variable concentrations and the solution obtained injected into the veins in an amount of 10 ml per kg of body weight. Administration was carried out in 20 seconds.
The animals were kept under clinical observation for three hours after administration and then daily for 7 days.
The lethal doses 50 (LD50) were calculated using the method of Litchfield and Wilcoxon (J. Pharmacol. Exp. Therap., 96-99, 1949) on the basis of the different mortality rates observed.

[2] = system: isolated left auricle of the Guinea pig; test: inotropic activity: contractile force of isolated, electrically stimulated left auricle (Lumley, Broadley and Levy technique; cumulative method of Van Rossum); conditions: for EC50 / Emax: Cavia porcellus; for EC50 / Inotropic action pD2: 36° C., cumulative concentrations, minimum of three dose-action curves; for EC50: read-out: Inotropic action pD2 (converted); for Emax / Inotropic action α (intrinsic activity): relative to dopamine; for Emax: α=1, read-out: Inotropic action α (intrinsic activity); for Inotropic action α (intrinsic activity): α=1
Source text: The technique used is that of P. Lumley, K. J. Broadley and G. P. Levy described in Cardiovascular Research, 11, 17-25, 1977. This technique is used to study the β1 cardiac inotrope function; the β1 receptors being cardiac in the Guinea pig as in man, the results obtained with the Guinea pig are applicable to man.
Guinea pigs of either sex are killed by a knock and bled; the left auricle is rapidly removed and immediately immersed in a Kreibs-Henseleit solution, the temperature being thermostatically maintained at 36° C. and aerated by a mixture of O2 and CO2 (95% and 5%). Two linen threads are attached to its ends: one is used to make contact between the auricle and a silver negative stimulating electrode, the other serves to connect the preparation to an isometric myograph (F-50 NARCO) and then to a recording system (Physiograph type M-K III NARCO).
Some 60 minutes are needed to ensure stability of the preparation.
Throughout the test, the auricle is activated electrically by a neurostimulator (Equipment Industriel II): voltage: supramaximum--width: 5 milli/sec.--frequency: 90 to 120 beats per minute.
Agonists, reference substances or compounds according to the invention, are added to the nutrient medium using the cumulative method of Van Rossum (Arch. Inter. Pharmacodyn., 143, 299-330, 1963). After adding each given amount of agonists, three minutes are allowed to pass before a further given amount of the product under study is added according to the method described above. The response of the organ to each concentration was assessed by the resultant increase in contractile force measured in gram. This was expressed as a percentage of the maximum increase (100%) for each compound and a dose-action curve was plotted. The agonist effect was quantified by calculating pD2 (E. J. Ariens and J. M. Van Rossum., Arch. Intern. Pharmacodyn. CX, No. 2, 2, 19 and Arch. Inter. Pharmacodyn. 143, 299-330, 1963) which characterizes the affinity of the compound under test for the receptors.
The agonist effect was also characterized by the intrinsic activity […] which defines the relative power of the agonist with respect to a standard which, in the tests, was dopamine, the intrinsic activity of which is taken arbitrarily to be α=1.
The results obtained are shown in table II below, it being assumed that:
the higher the value of pD2 and the more marked the affinity of the compound under test for the receivers, and
the higher the value of α, the better is the intrinsic activity.

Question: For `C1CC1CN1CCN(CC2CC2)CC1` [3a], which LD50 at 168 h [1] is on record?
Answer: 110 mg/kg

Question: And the EC50 [2]?
Answer: 30.2 µM

Question: And the Emax [2]?
Answer: 69%

Question: What does the source list for `CCOC(=O)N1CCN(CC2CC2)CC1` [6a]?
Answer: LD50 at 168 h [1]: 41 mg/kg; EC50 [2]: 1260 µM; Emax [2]: 58%

Question: Which results are given for `CN1CCN(CC2CC2)CC1` [Code No. 2]?
Answer: LD50 at 168 h [1]: 320 mg/kg; EC50 [2]: 112 µM; Emax [2]: 48%

Question: With `CCCCCN1CCN(CC2CC2)CC1` [Code No. 4] as the molecule, how does the LD50 at 168 h [1] read?
Answer: 37.5 mg/kg

Question: Which LD50 at 168 h [1] does the source give for `OCCN1CCN(CC2CC2)CC1` [Code No. 5] here?
Answer: 460 mg/kg

Question: For `CC(CN1CCN(CC2CC2)CC1)C(=O)O` (centres unmarked) [compound 7], which LD50 at 168 h [1] is on record?
Answer: 190 mg/kg

Question: What does the source list for `CC(CN1CCN(CC2CC2)CC1)C(=O)NCc1ccccc1` (centres unmarked) [compound 8]?
Answer: LD50 at 168 h [1]: 245 mg/kg; EC50 [2]: 53.7 µM; Emax [2]: 57%

Question: Which LD50 at 168 h [1] does the source give for `COc1ccccc1N1CCN(CC2CC2)CC1` [compound 10] here?
Answer: 34 mg/kg

Question: For `FC(F)(F)c1cccc(N2CCN(CC3CC3)CC2)c1` [compound 11], which LD50 at 168 h [1] is on record?
Answer: 30 mg/kg

Question: For `CC(=O)c1ccc(N2CCN(CC3CC3)CC2)cc1` [compound 12], which LD50 at 168 h [1] is on record?
Answer: 90 mg/kg

Question: And the EC50 [2]?
Answer: 55 µM

Question: And the Emax [2]?
Answer: 82%

Question: For `CC1CN(CC2CC2)CCN1CC1CC1` (centres unmarked) [compound 13], which LD50 at 168 h [1] is on record?
Answer: 104 mg/kg

Question: And the EC50 [2]?
Answer: 3.63 µM

Question: And the Emax [2]?
Answer: 36%

Question: Which LD50 at 168 h [1] does the source give for `c1ccc(CN2CCN(CC3CC3)CC2)cc1` [compound 14] here?
Answer: 46 mg/kg

Question: For `O=C(c1ccc2c(c1)OCO2)N1CCN(CC2CC2)CC1` [compound 15], which LD50 at 168 h [1] is on record?
Answer: 155 mg/kg

Question: What about the EC50 [2] of the same molecule?
Answer: 363 µM

Question: And the Emax [2]?
Answer: 88%

Question: Which results are given for `COc1cc(C(=O)N2CCN(CC3CC3)CC2)cc(OC)c1OC` [compound 16]?
Answer: mortality at 168 h ([1]; 100 mg/kg i.v.): 30%; Inotropic action pD2 [2]: 5.06; Inotropic action α (intrinsic activity) [2]: 0.52

Question: Which LD50 at 168 h [1] does the source give for `COc1cc(C(=O)N2CCN(CC3CC3)CC2)cc(OC)c1OC` [compound 17] here?
Answer: 245 mg/kg

Question: What about the “Inotropic action pD2” value [2] of the same molecule?
Answer: 3.50

Question: What about the “Inotropic action α (intrinsic activity)” value [2] of the same molecule?
Answer: 0.19

Question: With `CCOC(=O)Oc1c(OC)cc(C(=O)N2CCN(CC3CC3)CC2)cc1OC` [compound 18] as the molecule, how does the LD50 at 168 h [1] read?
Answer: 225 mg/kg

Question: With `O=C(C=Cc1cccc(C(F)(F)F)c1)N1CCN(CC2CC2)CC1` [compound 19] as the molecule, how does the LD50 at 168 h [1] read?
Answer: 95 mg/kg

Question: Which results are given for `COc1cc(C=CC(=O)N2CCN(CC3CC3)CC2)cc(OC)c1OC` [compound 20]?
Answer: LD50 at 168 h [1]: 52 mg/kg; EC50 [2]: 776 µM; Emax [2]: 49%

Question: Which LD50 at 168 h [1] does the source give for `COc1ccc(OCC(=O)N2CCN(CC3CC3)CC2)cc1` [compound 21] here?
Answer: 115 mg/kg

Question: What about the EC50 [2] of the same molecule?
Answer: 22.4 µM

Question: And the Emax [2]?
Answer: 69%

Question: Which LD50 at 168 h [1] does the source give for `O=C(COc1ccc(F)cc1)N1CCN(CC2CC2)CC1` [compound 22] here?
Answer: 100 mg/kg

Question: What about the EC50 [2] of the same molecule?
Answer: 17.8 µM

Question: And the Emax [2]?
Answer: 48%

Question: For `CC1CN(CC2CC2)CCN1` (centres unmarked) [compound 23], which LD50 at 168 h [1] is on record?
Answer: 280 mg/kg

Question: What about the EC50 [2] of the same molecule?
Answer: 178 µM

Question: What about the Emax [2] of the same molecule?
Answer: 75%

Question: Which LD50 at 168 h [1] does the source give for `CC1CN(CC2CC2)CCN1CCN(C)C` (centres unmarked) [compound 24] here?
Answer: 200 mg/kg

Question: For `CCN(CC)CCN1CCN(CC2CC2)CC1C` (centres unmarked) [compound 25], which LD50 at 168 h [1] is on record?
Answer: 150 mg/kg

Question: What does the source list for `CC1CN(CC2CC2)CCN1CCN1CCCC1` (centres unmarked) [compound 26]?
Answer: LD50 at 168 h [1]: 158 mg/kg; EC50 [2]: 14.1 µM; Emax [2]: 32%

Question: For `CC1CN(CC2CC2)CCN1CCN1CCCCC1` (centres unmarked) [compound 27], which LD50 at 168 h [1] is on record?
Answer: 155 mg/kg

Question: What about the EC50 [2] of the same molecule?
Answer: 47.9 µM

Question: What about the Emax [2] of the same molecule?
Answer: 40%

Question: For `CC1CN(CC2CC2)CCN1CCN1CCCCCC1` (centres unmarked) [compound 28], which LD50 at 168 h [1] is on record?
Answer: 95 mg/kg

Question: With `CC1CN(CC2CC2)CCN1CCN1CCOCC1` (centres unmarked) [compound 29] as the molecule, how does the LD50 at 168 h [1] read?
Answer: 250 mg/kg

Question: Which LD50 at 168 h [1] does the source give for `CCN(CC)CCCN1CCN(CC2CC2)CC1C` (centres unmarked) [compound 30] here?
Answer: 135 mg/kg

Question: Which LD50 at 168 h [1] does the source give for `CC1CN(CC2CC2)CCN1CCCN1CCCC1` (centres unmarked) [compound 31] here?
Answer: 165 mg/kg

Question: And the EC50 [2]?
Answer: 26.9 µM

Question: And the Emax [2]?
Answer: 25%

Question: For `CC1CN(CC2CC2)CCN1CCCN1CCCCC1` (centres unmarked) [compound 32], which LD50 at 168 h [1] is on record?
Answer: 162 mg/kg

Question: And the EC50 [2]?
Answer: 0.525 µM

Question: What about the Emax [2] of the same molecule?
Answer: 12%

Question: Which LD50 at 168 h [1] does the source give for `CC1CN(CC2CC2)CCN1CCCN1CCCCCC1` (centres unmarked) [compound 33] here?
Answer: 130 mg/kg

Question: Which results are given for `CC1CN(CC2CC2)CCN1CCCN1CCOCC1` (centres unmarked) [compound 34]?
Answer: LD50 at 168 h [1]: 215 mg/kg; EC50 [2]: 5.13 µM; Emax [2]: 24%

Question: With `CC1CN(CC2CC2)CCN1Cc1ccc2c(c1)OCO2` (centres unmarked) [compound 35] as the molecule, how does the LD50 at 168 h [1] read?
Answer: 77 mg/kg

Question: What about the EC50 [2] of the same molecule?
Answer: 5.25 µM

Question: What about the Emax [2] of the same molecule?
Answer: 17%

Question: For `CC1CN(CC2CC2)CCN1Cc1ccc2c(c1Cl)OCO2` (centres unmarked) [compound 36], which LD50 at 168 h [1] is on record?
Answer: 65 mg/kg

Question: For `CC1CN(CC2CC2)CCN1Cc1csc2ccccc12` (centres unmarked) [compound 37], which LD50 at 168 h [1] is on record?
Answer: 40 mg/kg

Question: For `COc1cc(C(=O)N2CCN(CC3CC3)CC2C)cc(OC)c1OC` (centres unmarked) [compound 38], which LD50 at 168 h [1] is on record?
Answer: 130 mg/kg

Question: What does the source list for `COc1cc(C(=O)N2CCN(CC3CC3)CC2C)cc(OC)c1OC(C)=O` (centres unmarked) [compound 39]?
Answer: LD50 at 168 h [1]: 225 mg/kg; EC50 [2]: 25.7 µM; Emax [2]: 69%
